According to PMC12802172, “Mechanistic insights into dual-active liver and blood-stage antiplasmodials” (mBio, 2025):
Read-outs that look alike come from different tables or passages of the source.

Key:
[1] = test system: T1, Plasmodium falciparum CAM (PH0212C); assay: microbe, parasite or virus in culture; parameters: species or system P. falciparum in human erythrocytes; asexual blood-stage growth inhibition, synchronized ring-stage parasites, SYBR Green I fluorescence; conditions: Erythrocyte, 72 h, read-out: P. falciparum asexual blood stage activity (IC50 uM) / CAM (PH0212C) / IC50
T1 construct: Cam/PH0212C
Method: (§1) Compound dose-response assays were performed in flat-bottom 96-well plates. Tightly synchronized ring-stage parasites were adjusted to 1% parasitemia at 1% hematocrit and exposed to a twofold serial dilution of the compounds plated using a Tecan D300e digital dispenser. As controls, the assay plate included untreated parasites and parasites treated with 700 nM DHA only. After 72 h of incubation, parasite growth was measured by lysing the cells with a 2 × lysis buffer containing 10 mM Tris-HCl, 5 mM EDTA, 0.1% (wt/vol) saponin, and 1% (vol/vol) Triton X-100, supplemented with 2 × SYBR Green I (Molecular Probes). Fluorescence was recorded using a FluorStar Omega v5.11 plate reader. IC50 values were determined using GraphPad Prism v9, and statistical significance was assessed with a two-sided Mann-Whitney U test. Each assay was conducted in technical duplicate, with a minimum of three biological replicates, as described in the figure legends. P. falciparum parasites were cultured with fresh human erythrocytes at 3% hematocrit in RPMI 1640 medium (Gibco), supplemented with 0.5% Albumax II (Gibco), 25 mM HEPES (Sigma), 1× GlutaMAX (Gibco), and 25 μg/mL gentamicin (Gibco). The following parasite strains were used: 3D7, Dd2 (MR4, MRA-156, T. Wellems), GB4 (MR4, MRA-925, T. Wellems), UG659 (P. Rosenthal), Cam/PH0212C (R. Fairhurst), and Cam3.II/ PH0306-C (R. Fairhurst). The cultures were maintained under a controlled tri-gas atmosphere of 1% O2, 3% CO2, and 96% N2. Human erythrocytes were ethically sourced from healthy, anonymous donors through the Scottish National Blood Transfusion Service (SNBTS) or the National Health Services Blood and Transplant (NHSBT). The use of red blood cells was with approval from the University of Dundee Schools of Medicine and Life Sciences Research Ethics Committee, and the NHS Cambridgeshire Research Ethics Committee and Wellcome Sanger Institute Human Materials and Data Management Committee. Half-maximal growth inhibition concentrations were determined for the nine query compounds against chloroquine-sensitive (3D7) and multidrug-resistant (Dd2) parasites (Fig. 1B; Table S1). Compounds were further assessed against a panel of geographically diverse parasite strains, including two multidrug-resistant Cambodian isolates (resistant to artemisinin, chloroquine, and pyrimethamine) and strains from Uganda (UG659) and Ghana (GB4). […] However, a reduction in sensitivity to TCMDC-134122 was noted across all strains when compared to Dd2.

[2] = test system: T2, Plasmodium falciparum UG654 (UG659 in methods); assay: microbe, parasite or virus in culture; parameters: species or system P. falciparum in human erythrocytes; asexual blood-stage growth inhibition, synchronized ring-stage parasites, SYBR Green I fluorescence; conditions: Erythrocyte, 72 h, read-out: P. falciparum asexual blood stage activity (IC50 uM) / UG654 / IC50
T2 construct: UG659
Method: as §1

P. falciparum Dd2 = test system: T3, P. falciparum Dd2; assay: microbe, parasite or virus in culture; parameters: species or system P. falciparum in human erythrocytes; asexual blood-stage growth inhibition, synchronized ring-stage parasites, SYBR Green I fluorescence; conditions: Plasmodium falciparum, DD2, Erythrocyte, 72 h
T3 construct: Dd2
Method: as §1

[3] = test system: T4, Plasmodium falciparum Cam3.II; assay: microbe, parasite or virus in culture; parameters: species or system P. falciparum in human erythrocytes; asexual blood-stage growth inhibition, synchronized ring-stage parasites, SYBR Green I fluorescence; conditions: Erythrocyte, 72 h, read-out: P. falciparum asexual blood stage activity (IC50 uM) / Cam3.II / IC50
T4 construct: Cam3.II
Method: as §1

P. falciparum 3D7 = test system: T5, P. falciparum 3D7; assay: microbe, parasite or virus in culture; parameters: species or system P. falciparum in human erythrocytes; asexual blood-stage growth inhibition, synchronized ring-stage parasites, SYBR Green I fluorescence; conditions: Plasmodium falciparum, 3D7, Erythrocyte, 72 h; initial laboratory strain experiment (Table S1); read-out: P. falciparum asexual blood stage activity (IC50 uM) / 3D7
T5 construct: 3D7
Method: as §1

[4] = test system: T6, Plasmodium falciparum GB4; assay: microbe, parasite or virus in culture; parameters: species or system P. falciparum in human erythrocytes; asexual blood-stage growth inhibition, synchronized ring-stage parasites, SYBR Green I fluorescence; conditions: Erythrocyte, 72 h, read-out: P. falciparum asexual blood stage activity (IC50 uM) / GB4 / IC50
T6 construct: GB4
Method: as §1

[5] = biological target: T7, P. falciparum cytoplasmic isoleucyl-tRNA synthetase (PfcIRS) (Plasmodium falciparum, UniProt Q8IDZ9); assay: AMP-Glo enzymatic assay with recombinant PfcIRS; type: biochemical
T7 construct: gene PF3D7_1332900; full-length PfcIRS (1-1273), C-terminal TEV-cleavable His10-FLAG tag removed, Sf9 expressed

[6] = initial laboratory strain experiment (Table S1), read-out: P. falciparum asexual blood stage activity (IC50 uM) / Dd2
[7] = strain panel experiment (Table S2), read-out: P. falciparum asexual blood stage activity (IC50 uM) / Dd2 / IC50

T7 sequence (Q8IDZ9 entry or part of it): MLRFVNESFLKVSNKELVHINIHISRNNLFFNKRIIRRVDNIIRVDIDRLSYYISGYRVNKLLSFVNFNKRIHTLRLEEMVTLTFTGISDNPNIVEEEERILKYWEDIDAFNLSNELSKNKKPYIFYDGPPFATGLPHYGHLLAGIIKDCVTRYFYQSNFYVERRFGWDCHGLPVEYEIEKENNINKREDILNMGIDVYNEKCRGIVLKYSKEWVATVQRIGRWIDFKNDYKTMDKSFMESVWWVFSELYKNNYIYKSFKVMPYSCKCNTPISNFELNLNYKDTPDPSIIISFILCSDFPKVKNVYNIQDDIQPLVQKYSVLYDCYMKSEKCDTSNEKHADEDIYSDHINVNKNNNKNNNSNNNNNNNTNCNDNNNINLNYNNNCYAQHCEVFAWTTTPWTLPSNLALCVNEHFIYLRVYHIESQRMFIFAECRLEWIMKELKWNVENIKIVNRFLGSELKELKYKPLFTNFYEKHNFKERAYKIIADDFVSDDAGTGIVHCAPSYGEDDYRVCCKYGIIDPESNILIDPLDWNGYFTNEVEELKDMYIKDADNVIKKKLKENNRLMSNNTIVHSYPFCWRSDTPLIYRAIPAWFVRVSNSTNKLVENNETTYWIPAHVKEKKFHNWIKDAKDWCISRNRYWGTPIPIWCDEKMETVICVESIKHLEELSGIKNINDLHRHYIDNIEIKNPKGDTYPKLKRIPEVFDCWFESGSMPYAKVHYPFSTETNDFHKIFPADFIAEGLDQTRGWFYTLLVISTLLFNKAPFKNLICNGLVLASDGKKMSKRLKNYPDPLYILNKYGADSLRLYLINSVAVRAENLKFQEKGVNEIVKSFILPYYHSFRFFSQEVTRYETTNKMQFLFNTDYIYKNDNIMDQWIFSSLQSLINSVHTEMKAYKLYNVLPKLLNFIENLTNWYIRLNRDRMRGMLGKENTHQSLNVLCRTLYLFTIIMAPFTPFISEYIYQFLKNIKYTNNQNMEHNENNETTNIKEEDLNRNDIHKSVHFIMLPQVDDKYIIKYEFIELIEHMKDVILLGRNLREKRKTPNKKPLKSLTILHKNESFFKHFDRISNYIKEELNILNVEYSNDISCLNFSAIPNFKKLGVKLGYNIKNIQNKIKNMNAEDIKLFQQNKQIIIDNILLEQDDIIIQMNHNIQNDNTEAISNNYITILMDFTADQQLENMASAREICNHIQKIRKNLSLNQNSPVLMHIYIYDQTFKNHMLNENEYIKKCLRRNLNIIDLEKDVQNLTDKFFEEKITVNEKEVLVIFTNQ

Row | SMILES | IC50 [1] [µM] | IC50 [2] [µM] | IC50 (P. falciparum Dd2; [6]) [µM] | IC50 (P. falciparum Dd2; [7]) [µM] | IC50 [3] [µM] | IC50 (P. falciparum 3D7) [µM] | IC50 [4] [µM] | IC50 [5] [nM]
1 | Cc1cccc2[nH]c(-c3cccc(-c4cccc(NC(=O)CCc5c[nH]cn5)c4)c3)nc12 [TCMDC-132158] | 0.654 | 1.82 | 0.609 | 0.932 | 0.757 | 0.616 | 1.72 | –
2 | CC(C)(CN)c1cc(-c2ccc(Cl)c(O)c2)c(-c2ccncc2)o1 [TCMDC-141334] | 0.676 | 0.537 | 0.414 | 0.485 | 0.644 | 0.446 | 0.974 | –
3 | Cc1cccc2[nH]c(-c3ccc(-c4cccc(NC(=O)C(C)CN5CCN(C)CC5)c4)cc3)nc12 (stereo not shown) [TCMDC-137144] | 1.2 | 2.18 | 1.4 | 1.39 | 1.39 | 0.912 | 1.94 | –
4 | CC(C)(C)c1cc(Cl)cc(C(=O)Nc2cc([N+](=O)[O-])ccc2Cl)c1O [TCMDC-142214] | 3.8 | 3.07 | 3.17 | 2.88 | 2.78 | 3.65 | 3.08 | –
5 | c1ccn2c(Sc3ncnc4sccc34)ncc2c1 [TCMDC-124602] | 0.313 | 0.354 | 0.45 | 0.288 | 0.316 | 0.502 | 0.651 | 6590
6 | COc1ccc(-n2ncc(C(=O)N3CCC4(C3)C(=O)N(c3ccccc3)c3ccccc34)c2C)cc1 (stereo not shown) [TCMDC-134122] | 1.25 | 1.17 | 0.216 | 0.394 | 1.78 | 0.572 | 1.67 | –
7 | Cc1cccc(C)c1CNc1cccc(-c2nc(C)c(C)[nH]2)c1 [TCMDC-133434] | 1.33 | 1.22 | 0.851 | 1.74 | 1.21 | 0.89 | 0.924 | –
8 | CCOc1ccc2nc(NC(=O)c3csnn3)sc2c1 [TCMDC-125075] | 0.195 | 0.178 | 0.206 | 0.192 | 0.115 | 0.144 | 0.16 | –
9 | COc1cc(-c2[nH]c(C(C)(C)CN)nc2-c2ccncc2)ccc1Br [TCMDC-140674] | 0.501 | 1.07 | 0.244 | 0.341 | 0.532 | 0.688 | 1.85 | –
